We go through 6 compounds from ChEMBL document CHEMBL1201862, “PubChem BioAssay data set” (2004).

In data set [1] the target is Cytochrome P450 2D6 (Homo sapiens, UniProt P10635).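 Also: CYP2D6 member of a cytochrome P450 panel assay.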
The test system of data set [2] is HEK293. Kind of data set: cells. The note with it: Homo sapiens.
The test system of data set [3] is HEK293. Kind of data set: cells. The note with it: Homo sapiens. The source holds these as a separate data set.
Data set [4] relates to Vero. Put plainly: cells. It is filed as functional. The note with it: Chlorocebus sabaeus.
Data set [5] can be described thus: HEp-2 cell cytotoxicity, dose response, cytotoxicity control for RSV inhibitor project, HTS (AID 2410). It is filed as functional. The conditions noted are these: human respiratory syncytial virus.
The test system of data set [6] is Vero. Put plainly: cells. It is filed as functional, cell-based. The conditions noted are these: Chlorocebus sabaeus.
Data set [7] can be described thus: cells.
The target of data set [8] is Trypsin (Sus scrofa, UniProt P00761). Put plainly: porcine trypsin inhibitors, dose response, selectivity assay for Rce1 protease inhibitor project, biochemical, quenched peptide fluorescence, cherry-pick (AID 488789).
Data set [9] concerns the target CAAX prenyl protease 1 (Saccharomyces cerevisiae S288c, UniProt P47154). Kind of data set: Ste24 protease inhibitors, dose response, biochemical, S. cerevisiae, plate reader, cherry-pick (AID 488815).
The target of data set [10] is FAD-linked sulfhydryl oxidase ALR (Homo sapiens, UniProt P55789). Put plainly: inhibitors of human ALR sulfhydryl oxidase, dose response, biochemical, H2O2 detection, luminescence, cherry-pick (AID 493248).
The target in data set [11] is CAAX prenyl protease 2 (Homo sapiens, UniProt Q9Y256). Kind of data set: human Rce1 protease inhibitors, dose response, biochemical, yeast membranes, quenched-peptide fluorescence, cherry-pick (AID 588849).
Data set [12] has as its target Keap1/Nrf2 (Homo sapiens, UniProt Q14145). Kind of data set: Keap1-Nrf2 protein-protein interaction inhibitors, dose response, biochemical, fluorescence polarization, cherry-picked samples (AID 588683). For orientation: Polarisation of emitted light reports the rotation of a fluorescent probe.
Data set [13] concerns the target Genome polyprotein (dengue virus type 2, UniProt P29990). Put plainly: Dengue-2 NS5 methyltransferase inhibitors, primary screen, biochemical, confirmation dose response (AID 588689). Type of data set: functional.
Data set [14] has as its target T1, Protein RecA (Mycobacterium tuberculosis, UniProt P9WHJ3).
T1 sequence (P9WHJ3 whole entry): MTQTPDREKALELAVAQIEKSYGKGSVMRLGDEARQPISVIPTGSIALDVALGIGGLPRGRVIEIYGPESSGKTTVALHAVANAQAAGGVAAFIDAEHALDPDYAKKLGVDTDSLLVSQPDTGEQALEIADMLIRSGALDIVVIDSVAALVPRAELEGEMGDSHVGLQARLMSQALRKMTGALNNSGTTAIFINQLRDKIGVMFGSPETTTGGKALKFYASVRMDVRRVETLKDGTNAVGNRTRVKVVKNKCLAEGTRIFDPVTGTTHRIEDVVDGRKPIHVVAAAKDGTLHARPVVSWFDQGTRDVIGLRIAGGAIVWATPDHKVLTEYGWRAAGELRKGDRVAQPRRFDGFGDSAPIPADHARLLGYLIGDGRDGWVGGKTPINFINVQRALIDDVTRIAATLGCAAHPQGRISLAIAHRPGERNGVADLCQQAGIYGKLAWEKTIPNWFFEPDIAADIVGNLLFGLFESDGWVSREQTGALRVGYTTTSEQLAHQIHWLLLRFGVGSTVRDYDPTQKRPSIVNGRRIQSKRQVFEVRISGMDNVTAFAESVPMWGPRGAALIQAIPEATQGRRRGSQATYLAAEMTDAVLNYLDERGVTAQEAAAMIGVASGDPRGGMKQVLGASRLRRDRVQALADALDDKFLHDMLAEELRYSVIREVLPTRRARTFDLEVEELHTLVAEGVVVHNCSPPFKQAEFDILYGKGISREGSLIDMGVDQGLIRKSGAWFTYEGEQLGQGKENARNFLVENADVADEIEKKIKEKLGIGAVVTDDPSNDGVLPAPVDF
Put plainly: Fluorescence Cell-Free Homogeneous Dose Retest to Identify Inhibitors of RecA-Intein Splicing Activity. [Related pubchem assays (depositor defined):AID2097, AID2223, AID489010, AID492950]. It is filed as functional.

For data set [15], the system named is Vero. Kind of data set: Vero cell cytotoxicity, cytotoxicity control for flavivirus capping enzyme inhibitors (AID 588742). It is filed as functional. The note with it: Chlorocebus sabaeus.
In data set [16] the target is T2, Replicative DNA helicase DnaB (Mycobacterium tuberculosis, UniProt P9WMR3).
T2 sequence (P9WMR3 whole entry): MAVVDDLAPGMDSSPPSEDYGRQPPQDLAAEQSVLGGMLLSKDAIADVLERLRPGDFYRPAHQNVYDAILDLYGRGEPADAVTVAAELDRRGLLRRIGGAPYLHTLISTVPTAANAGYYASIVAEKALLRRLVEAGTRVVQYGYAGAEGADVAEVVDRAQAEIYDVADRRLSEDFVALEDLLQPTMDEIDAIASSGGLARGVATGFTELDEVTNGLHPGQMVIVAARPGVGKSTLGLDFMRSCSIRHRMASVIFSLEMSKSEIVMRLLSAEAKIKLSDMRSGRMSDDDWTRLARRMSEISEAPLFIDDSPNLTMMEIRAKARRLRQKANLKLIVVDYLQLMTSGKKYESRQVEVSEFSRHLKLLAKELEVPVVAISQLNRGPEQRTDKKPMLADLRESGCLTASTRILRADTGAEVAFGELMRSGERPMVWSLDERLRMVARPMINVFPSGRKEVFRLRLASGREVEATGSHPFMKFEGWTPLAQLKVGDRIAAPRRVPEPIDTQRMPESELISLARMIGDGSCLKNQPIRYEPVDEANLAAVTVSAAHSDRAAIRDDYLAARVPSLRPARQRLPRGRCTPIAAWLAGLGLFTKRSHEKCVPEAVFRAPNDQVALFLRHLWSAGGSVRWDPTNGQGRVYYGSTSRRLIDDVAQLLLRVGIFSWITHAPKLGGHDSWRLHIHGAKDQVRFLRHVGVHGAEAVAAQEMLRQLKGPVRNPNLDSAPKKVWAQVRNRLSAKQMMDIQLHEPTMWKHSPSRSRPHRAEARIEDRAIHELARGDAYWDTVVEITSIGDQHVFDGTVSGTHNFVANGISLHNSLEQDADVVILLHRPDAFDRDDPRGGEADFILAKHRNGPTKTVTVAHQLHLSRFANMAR
Put plainly: DnaB intein splicing inhibitors, dose response, biochemical, cell-free fluorescence (AID 449749). Type of data set: functional.

Data set [17] addresses T3, Short transient receptor potential channel 4 (Mus musculus, UniProt Q9QUQ5).
T3 sequence (Q9QUQ5 whole entry): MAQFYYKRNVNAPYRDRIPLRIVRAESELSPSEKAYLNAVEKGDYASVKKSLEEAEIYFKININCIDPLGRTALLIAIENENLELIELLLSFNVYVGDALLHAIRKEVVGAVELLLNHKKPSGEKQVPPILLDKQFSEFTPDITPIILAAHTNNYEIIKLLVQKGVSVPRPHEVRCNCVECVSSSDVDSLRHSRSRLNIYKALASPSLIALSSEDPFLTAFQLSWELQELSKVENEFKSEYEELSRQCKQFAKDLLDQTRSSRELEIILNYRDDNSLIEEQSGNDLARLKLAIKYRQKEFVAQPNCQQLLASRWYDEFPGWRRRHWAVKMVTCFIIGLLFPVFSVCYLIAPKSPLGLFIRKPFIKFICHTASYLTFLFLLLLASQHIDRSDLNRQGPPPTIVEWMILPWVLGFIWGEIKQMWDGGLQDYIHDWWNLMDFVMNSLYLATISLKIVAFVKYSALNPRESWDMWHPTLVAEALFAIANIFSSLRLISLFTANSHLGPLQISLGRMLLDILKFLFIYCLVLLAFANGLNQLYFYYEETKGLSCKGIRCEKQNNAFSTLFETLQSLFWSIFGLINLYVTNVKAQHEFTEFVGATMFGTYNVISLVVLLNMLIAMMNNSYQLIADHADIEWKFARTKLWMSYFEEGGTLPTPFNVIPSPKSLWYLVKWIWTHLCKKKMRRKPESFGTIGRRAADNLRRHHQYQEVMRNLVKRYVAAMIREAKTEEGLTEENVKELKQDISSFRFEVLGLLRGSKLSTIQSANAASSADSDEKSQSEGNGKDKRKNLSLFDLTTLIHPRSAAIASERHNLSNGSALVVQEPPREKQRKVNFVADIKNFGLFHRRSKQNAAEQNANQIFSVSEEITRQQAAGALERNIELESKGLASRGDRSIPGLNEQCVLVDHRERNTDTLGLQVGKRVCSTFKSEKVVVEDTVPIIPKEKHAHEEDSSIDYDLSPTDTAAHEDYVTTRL
Put plainly: mouse TRPC4 channel inhibitors, dose response, cell-based, HEK293 TRPC4/mu-opioid, Fluo-4 calcium (AID 434942).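 Also: potency of inhibitors blocking the TRPC4 calcium response.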 It is filed as functional.

Data set [18] addresses T3, Short transient receptor potential channel 4. Kind of data set: SAR Analysis for the identification of selective inhibits of the transient receptor potential cation channel C4 (TRPC4): Automated Electrophysiology. [Related pubchem assays (depositor defined):AID2256]. It is filed as functional.

The source made the active and inactive calls. A value given as a limit tells only on which side of the number the result lay.

FAD-linked sulfhydryl oxidase ALR, sequence (P55789 whole entry): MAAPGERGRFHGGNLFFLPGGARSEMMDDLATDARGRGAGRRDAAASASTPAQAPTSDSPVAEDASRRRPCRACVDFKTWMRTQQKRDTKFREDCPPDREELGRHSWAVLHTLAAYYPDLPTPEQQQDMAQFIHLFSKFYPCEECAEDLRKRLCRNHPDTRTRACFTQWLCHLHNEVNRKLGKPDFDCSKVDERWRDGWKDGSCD
Cytochrome P450 2D6, sequence (P10635 whole entry): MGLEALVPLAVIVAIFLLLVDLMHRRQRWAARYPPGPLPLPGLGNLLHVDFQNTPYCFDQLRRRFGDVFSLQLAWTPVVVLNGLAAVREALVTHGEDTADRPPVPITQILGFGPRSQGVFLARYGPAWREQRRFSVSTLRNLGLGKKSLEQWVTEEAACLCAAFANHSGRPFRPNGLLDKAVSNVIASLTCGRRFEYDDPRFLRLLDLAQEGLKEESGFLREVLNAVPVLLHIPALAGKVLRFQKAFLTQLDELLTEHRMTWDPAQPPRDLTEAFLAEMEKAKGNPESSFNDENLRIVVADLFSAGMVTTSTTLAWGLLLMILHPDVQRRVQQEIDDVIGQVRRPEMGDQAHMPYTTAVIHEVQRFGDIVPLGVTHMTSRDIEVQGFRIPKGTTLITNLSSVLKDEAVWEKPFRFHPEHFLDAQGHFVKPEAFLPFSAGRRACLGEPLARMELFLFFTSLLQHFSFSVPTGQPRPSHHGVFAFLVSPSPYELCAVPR
CAAX prenyl protease 2, sequence (Q9Y256 whole entry): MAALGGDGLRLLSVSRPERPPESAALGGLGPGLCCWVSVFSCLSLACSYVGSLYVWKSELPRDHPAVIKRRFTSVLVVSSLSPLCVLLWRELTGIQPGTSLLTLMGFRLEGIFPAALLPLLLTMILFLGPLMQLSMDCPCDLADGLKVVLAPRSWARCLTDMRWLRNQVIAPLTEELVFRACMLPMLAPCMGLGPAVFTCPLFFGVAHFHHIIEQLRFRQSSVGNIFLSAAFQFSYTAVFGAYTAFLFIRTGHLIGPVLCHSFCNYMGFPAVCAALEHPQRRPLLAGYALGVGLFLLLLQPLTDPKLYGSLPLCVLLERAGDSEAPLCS
Trypsin, sequence (P00761 whole entry): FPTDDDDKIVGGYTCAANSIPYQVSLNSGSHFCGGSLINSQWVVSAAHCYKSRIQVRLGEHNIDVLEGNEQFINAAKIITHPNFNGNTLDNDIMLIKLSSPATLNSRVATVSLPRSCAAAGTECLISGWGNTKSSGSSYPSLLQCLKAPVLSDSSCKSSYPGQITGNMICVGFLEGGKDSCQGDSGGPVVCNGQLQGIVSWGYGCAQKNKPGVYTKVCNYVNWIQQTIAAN
Genome polyprotein, sequence (P29990 2492-3391 limits assumed): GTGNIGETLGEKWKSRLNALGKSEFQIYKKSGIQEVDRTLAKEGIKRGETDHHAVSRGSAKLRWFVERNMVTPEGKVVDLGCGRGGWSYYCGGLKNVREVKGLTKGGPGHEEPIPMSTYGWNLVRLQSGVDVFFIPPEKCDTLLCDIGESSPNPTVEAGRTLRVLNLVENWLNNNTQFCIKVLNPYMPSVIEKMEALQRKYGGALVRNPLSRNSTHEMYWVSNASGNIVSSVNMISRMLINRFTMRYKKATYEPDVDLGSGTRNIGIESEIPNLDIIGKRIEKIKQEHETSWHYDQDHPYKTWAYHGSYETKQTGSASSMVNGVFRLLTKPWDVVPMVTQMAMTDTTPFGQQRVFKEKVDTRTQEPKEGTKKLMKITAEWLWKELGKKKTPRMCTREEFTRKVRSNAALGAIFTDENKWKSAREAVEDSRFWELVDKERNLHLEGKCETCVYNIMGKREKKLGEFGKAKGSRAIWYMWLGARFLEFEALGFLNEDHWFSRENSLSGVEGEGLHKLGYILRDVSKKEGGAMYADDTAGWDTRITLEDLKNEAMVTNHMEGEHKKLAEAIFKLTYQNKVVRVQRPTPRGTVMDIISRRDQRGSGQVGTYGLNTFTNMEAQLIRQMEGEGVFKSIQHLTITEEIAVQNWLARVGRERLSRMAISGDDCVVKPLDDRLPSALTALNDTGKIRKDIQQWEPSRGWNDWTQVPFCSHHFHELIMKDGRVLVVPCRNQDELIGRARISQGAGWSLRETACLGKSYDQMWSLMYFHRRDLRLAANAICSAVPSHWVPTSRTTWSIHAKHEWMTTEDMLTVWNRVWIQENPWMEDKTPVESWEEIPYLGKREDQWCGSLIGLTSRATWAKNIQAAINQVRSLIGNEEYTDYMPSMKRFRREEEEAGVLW
Keap1/Nrf2, sequence (Q16236 whole entry): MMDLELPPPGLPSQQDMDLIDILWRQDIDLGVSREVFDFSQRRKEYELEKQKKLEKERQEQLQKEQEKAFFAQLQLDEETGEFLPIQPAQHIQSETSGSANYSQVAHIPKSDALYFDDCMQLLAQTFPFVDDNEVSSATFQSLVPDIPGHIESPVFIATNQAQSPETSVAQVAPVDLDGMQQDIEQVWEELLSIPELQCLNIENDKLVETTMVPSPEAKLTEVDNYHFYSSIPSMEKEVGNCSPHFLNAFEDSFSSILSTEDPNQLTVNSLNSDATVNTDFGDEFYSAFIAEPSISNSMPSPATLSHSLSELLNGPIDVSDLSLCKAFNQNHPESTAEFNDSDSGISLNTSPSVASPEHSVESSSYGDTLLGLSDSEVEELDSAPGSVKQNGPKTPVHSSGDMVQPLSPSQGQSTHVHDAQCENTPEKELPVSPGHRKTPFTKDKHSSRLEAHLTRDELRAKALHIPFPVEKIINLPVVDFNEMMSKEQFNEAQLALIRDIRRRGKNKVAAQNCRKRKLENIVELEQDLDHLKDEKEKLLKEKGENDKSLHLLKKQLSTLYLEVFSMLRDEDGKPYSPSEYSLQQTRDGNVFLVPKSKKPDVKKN
Keap1/Nrf2, sequence (Q14145 whole entry): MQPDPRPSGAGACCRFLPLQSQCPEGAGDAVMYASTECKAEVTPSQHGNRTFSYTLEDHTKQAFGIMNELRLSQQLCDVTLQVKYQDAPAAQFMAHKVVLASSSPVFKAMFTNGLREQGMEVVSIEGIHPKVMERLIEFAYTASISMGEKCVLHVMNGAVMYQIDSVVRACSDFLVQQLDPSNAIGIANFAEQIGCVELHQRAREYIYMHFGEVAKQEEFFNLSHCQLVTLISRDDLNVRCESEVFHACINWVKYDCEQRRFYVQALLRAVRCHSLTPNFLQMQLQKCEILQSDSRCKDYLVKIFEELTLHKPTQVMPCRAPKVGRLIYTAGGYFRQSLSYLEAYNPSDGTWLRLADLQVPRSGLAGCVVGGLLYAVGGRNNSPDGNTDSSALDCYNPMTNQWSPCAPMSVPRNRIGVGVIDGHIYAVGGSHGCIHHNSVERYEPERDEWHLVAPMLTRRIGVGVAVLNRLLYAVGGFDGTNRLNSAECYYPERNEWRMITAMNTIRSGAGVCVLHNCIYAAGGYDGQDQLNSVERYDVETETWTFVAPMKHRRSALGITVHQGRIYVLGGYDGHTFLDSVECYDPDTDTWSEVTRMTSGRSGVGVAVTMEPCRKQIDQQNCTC
CAAX prenyl protease 1, sequence (P47154 whole entry): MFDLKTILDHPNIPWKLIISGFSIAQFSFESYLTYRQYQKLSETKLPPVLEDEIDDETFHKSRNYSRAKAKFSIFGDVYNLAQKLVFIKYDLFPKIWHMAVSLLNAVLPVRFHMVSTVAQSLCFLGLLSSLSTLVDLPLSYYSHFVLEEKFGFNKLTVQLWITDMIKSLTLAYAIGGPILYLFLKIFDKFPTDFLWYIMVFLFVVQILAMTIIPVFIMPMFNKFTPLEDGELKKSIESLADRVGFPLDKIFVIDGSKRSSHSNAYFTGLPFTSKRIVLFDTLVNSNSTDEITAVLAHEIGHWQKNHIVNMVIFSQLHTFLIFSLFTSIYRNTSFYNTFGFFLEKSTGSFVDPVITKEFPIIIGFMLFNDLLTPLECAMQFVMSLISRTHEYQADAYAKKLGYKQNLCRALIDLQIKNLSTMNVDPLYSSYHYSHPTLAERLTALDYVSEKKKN

For `Cc1cc2c(s1)CCCCC(=O)N2`, the AC50 (usually the concentration giving half of the maximal activity seen) in data set [1] is “inconclusive”.
Regarding `Cc1nn2c(nc(N3CCCCC3)c3ccccc32)c1C=O`, the EC50 in [2] and in data set [3] was > 59.7 µM (inactive) in each case.
Regarding `CC1Cc2ccccc2N1S(=O)(=O)c1cccc(C(=O)N2CCN(c3ncccn3)CC2)c1` (stereo not drawn), the CC50 (in general, the concentration giving 50% cytotoxicity) is > 25 µM (active) in [4] and 3.41 µM (active) in [5]. Also, the IC50 – broadly, the concentration that gives 50% inhibition – in data set [6] is 2.15 µM (active); in data set [7] it was 1.01 µM (active).
For the compound `Oc1ccc(-c2cn3cc(C(F)(F)F)ccc3n2)cc1`, the half-maximal activity concentration (AC50) is 11.1 µM (active) in data set [8], 8.29 µM (active) in data set [9], 3.4 µM (active) in data set [10] and 10.5 µM (active) in data set [11].
Turning to `O=C1/C(=N\S(=O)(=O)c2ccc([N+](=O)[O-])cc2)C(Cl)=C(O)c2ccccc21`, the AC50 in data set [12] was > 52 µM (inactive); in data set [16], 6.49 µM (active). The IC50 in data set [13] was 76.9 µM (active). Further, the half-maximal effective concentration (EC50) (as a rule, the midpoint of the concentration-response curve) in [14] is 1.26 µM (active). In [15], the CC50 was 34.2 µM (active).
Regarding `N=C(NC1CCCCC1)c1ccc(Cl)cc1`, the EC50 in data set [17] was 1.68 µM (active). Also, the IC50 in [18] is 4.56 µM (active).
